Test results: patent US20030041357A1, “Herbicide resistant plants” (priority 1996, published 2003)

Columns and labels:
[1] = biological target: GST-27 (leaf extracts of GST-27 expressing tobacco) (Zea mays, UniProt P46420); assay: In vitro HPLC assay of GST activity against herbicide substrates; assay type: biochemical; details: GST-27 tobacco extracts, 5 mM glutathione, 20 ppm herbicide
[2] = tested on: wild-type tobacco; assay: Rooting assay on MS medium with herbicide; assay type: in vivo, Nicotiana tabacum cv Samsum; details: for root growth of explants: 3 weeks, 10, 20, 40 ppm acetochlor/metolachlor, 20, 40, 100 ppm alachlor
[3] = tested on: GST-27 tobacco lines; assay: Rooting assay on MS medium with herbicide; assay type: in vivo, Nicotiana tabacum cv Samsum
[4] = tested on: transgenic maize seedlings expressing GST-27; assay: Acetochlor-treated soil seedling test; assay type: in vivo; details: soil treated with 2,000 to 8,000 grams per hectare, 7 days
[5] = tested on: non-transgenic maize seedlings; assay: Acetochlor-treated soil seedling test; assay type: in vivo; details: soil treated with 2,000 to 8,000 grams per hectare, absence of safener, 7 days
[6] = tested on: Wild Type tobacco; assay: Herbicide trial of DV6/HPPD cross (Example 10); assay type: in vivo; details: 75 g/ha
[7] = tested on: DV6/HPPD tobacco; assay: Herbicide trial of DV6/HPPD cross (Example 10); assay type: in vivo; details: 75 g/ha
[8] = tested on: transgenic tobacco plants expressing GST-27; assay: Pre-emergence glasshouse herbicide trial; assay type: in vivo, Nicotiana tabacum cv Samsum; details: 300 and 350 g/ha in 5% JF 5969
[9] = tested on: transgenic tobacco plants expressing GST-27; assay: Post-emergence glasshouse herbicide trial; assay type: in vivo, Nicotiana tabacum cv Samsum; details: sprayed 16 days after sowing, 5% JF 5969
[10] = tested on: wild type controls; assay: Growth on herbicide-containing tissue culture medium; assay type: in vivo, Tobacco; details: 0.01 and 0.05 mM glyphosate; 10 and 40 ppm alachlor
[11] = tested on: primary transformants from pDV6-Bin; assay: as above; assay type: in vivo, Tobacco; details: a number of transgenics; 0.01 and 0.05 mM glyphosate; 10 and 40 ppm alachlor
[12] = tested on: wild type tomato (cv Ailsa Craig); assay: PDS inhibitor herbicide tolerance trial; assay type: in vivo
[13] = tested on: transgenic tomato over-expressing the Erwinia uredovora crt1 (PDS) gene; assay: PDS inhibitor herbicide tolerance trial; assay type: in vivo; details: for Phytotoxity at 27 PAT: Transgenic tomato
[14] = tested on: pDV6 plants expressing both glyphosate resistance genes and GST; assay: Pre-em/post-em herbicide treatment of DV6 plants (Table 1); set-up: species or system Tobacco; details: in vivo
[15] = tested on: maize seedlings which contain the PAT gene; assay: Glufosinate spray of maize seedlings; assay type: in vivo; details: commercial mix, about 0.1 to 1% active ingredient
[16] = line 2, pilot experiment, 2 weeks
[17] = line 6, pilot experiment, 2 weeks

GST-27 (leaf extracts of GST-27 expressing tobacco), sequence (P46420 whole entry): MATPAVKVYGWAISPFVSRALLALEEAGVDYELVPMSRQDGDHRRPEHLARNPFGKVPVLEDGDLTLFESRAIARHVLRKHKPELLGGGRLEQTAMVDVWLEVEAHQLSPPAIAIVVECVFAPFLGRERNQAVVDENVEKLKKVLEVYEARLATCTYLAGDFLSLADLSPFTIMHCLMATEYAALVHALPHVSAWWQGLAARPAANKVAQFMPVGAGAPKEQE

CCOCN(C(=O)CCl)c1c(C)cccc1CC [Acetochlor, acetochlor]
GST activity against herbicide substrate (HPLC) [1]: lowest activity
root growth of explants [2]: do not show any rooting
root growth of explants ([3]; GST-27 lines 6 and 17, 3 weeks): produce few roots at 10 and 20 ppm
root growth of explants ([3]; lines 5 and 12, 3 weeks): not as resistant
seedling damage [4]: little, if any damage
seedling damage [5]: very substantial damage
phytotoxicity score, 21 DAT ([6]; Wild Type Rep a): 40
phytotoxicity score, 21 DAT ([6]; Wild type Rep b): 100
phytotoxicity score, 21 DAT ([7]; DV6/HPPD Rep a): 0
phytotoxicity score, 21 DAT ([7]; DV6/HPPD Rep b): 0

CCc1cccc(CC)c1N(COC)C(=O)CCl [Alachlor, alachlor]
root growth of explants [2]: does not produce any root
concentration from which an effect of the herbicide is observable ([2]; pilot experiment, 2 weeks): ≥ 1 ppm
concentration from which plants do not produce new leaves ([2]; pilot experiment, 2 weeks): ≥ 10 ppm
concentration up to which roots are produced ([2]; pilot experiment, 2 weeks): up to 5 ppm
concentration up to which roots are produced ([3]; GST-27 lines 6 and 17, 3 weeks): ≤ 40 ppm
root growth of explants ([3]; Lines 9 and 16, 20 and 40 ppm, 3 weeks): do not produce any roots
concentration from which an effect of the herbicide is observable [3, 16]: ≥ 20 ppm
concentration up to which roots are produced [3, 16]: up to 10 ppm
concentration from which an effect of the herbicide is observable [3, 17]: ≥ 40 ppm
concentration up to which roots are produced [3, 17]: ≤ 20 ppm
resistance to pre-emergent application (germination scored after 3 weeks) [8]: resistant
resistance to post-emergent spray (damage scored after 3 weeks) [9]: resistant
growth on tissue culture medium [10]: fail to
growth on tissue culture medium [11]: grow successfully

CCC1CN(c2cccc(C(F)(F)F)c2)C(=O)C1C(=O)NC (stereo not shown) [Compound III]
Phytotoxity at 27 PAT ([12]; 37 g/ha): 0%
Phytotoxity at 27 PAT ([12]; 111 g/ha): 8.3%
Phytotoxity at 27 PAT ([12]; 333 g/ha): 56.7%
Phytotoxity at 27 PAT ([12]; 1000 g/ha): 100%
Phytotoxity at 27 PAT ([13]; 111 g/ha): 0%
Phytotoxity at 27 PAT ([13]; 333 g/ha): 0%
Phytotoxity at 27 PAT ([13]; 1000 g/ha): 10%
Phytotoxity at 27 PAT ([13]; 3000 g/ha): 3.3%

COc1nn(-c2cccc(C(F)(F)F)c2)/c(=N\C(=O)OC(C)C)s1 [Compound II]
Phytotoxity at 27 PAT ([12]; 37 g/ha): 3.3%
Phytotoxity at 27 PAT ([12]; 111 g/ha): 13.3%
Phytotoxity at 27 PAT ([12]; 333 g/ha): 20%
Phytotoxity at 27 PAT ([12]; 1000 g/ha): 100%
Phytotoxity at 27 PAT ([13]; 111 g/ha): 3.3%
Phytotoxity at 27 PAT ([13]; 333 g/ha): 0%
Phytotoxity at 27 PAT ([13]; 1000 g/ha): 3.3%
Phytotoxity at 27 PAT ([13]; 3000 g/ha): 0%

O=C1C(Cl)C(CCl)CN1c1cccc(C(F)(F)F)c1 (stereo not shown) [Compound I]
Phytotoxity at 27 PAT ([12]; 333 g/ha): 0%
Phytotoxity at 27 PAT ([12]; 1000 g/ha): 23.3%
Phytotoxity at 27 PAT ([12]; 3000 g/ha): 100%
Phytotoxity at 27 PAT ([12]; 9000 g/ha): 100%
Phytotoxity at 27 PAT ([13]; 333 g/ha): 0%
Phytotoxity at 27 PAT ([13]; 1000 g/ha): 0%
Phytotoxity at 27 PAT ([13]; 3000 g/ha): 0%
Phytotoxity at 27 PAT ([13]; 9000 g/ha): 0%
rate to which transgenic tomatoes are highly tolerant ([13]; transgenic tomatoes): up to 9 kg/ha

CCCN(CCC)C(=O)SCC [EPTC]
% Phytotoxicity (mean, 21 DAT) [14]: 0%

CCc1cccc(C)c1N(C(=O)CCl)C(C)COC (stereo not shown) [Metolachlor, metolachlor]
GST activity against herbicide substrate (HPLC) [1]: lowest activity
root growth of explants [2]: produces very few tiny roots at 10 and 20 ppm
rooting concentration limit ([3]; GST-27 line 17, 3 weeks): more than 40 ppm
root growth of explants ([3]; GST-27 lines 6 and 17, 3 weeks): produce short roots

CP(=O)(O)CCC(N)C(=O)O (stereo not shown) [glufosinate]
resistance of seedlings to spray [15]: either completely resistant to glufosinate, or are relatively tolerant of the herbicide
